Structures are written as SMILES.

In general, Kd refers to the constant that tells how readily two partners part at equilibrium. A higher Kd goes with a looser complex.

This test deals with human insulin (hINS) (Homo sapiens, UniProt P01308). Description: isothermal titration calorimetry. It is filed as binding. In general terms: Isothermal titration calorimetry measures the heat released or taken up as one component is titrated into another.
Chain of human insulin (hINS) (P01308 25-54): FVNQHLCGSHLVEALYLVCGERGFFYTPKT
Chain of human insulin (hINS) (P01308 90-110): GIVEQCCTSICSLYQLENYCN

For `Oc1ccc(/C=C/c2cc(O)cc(O)c2)cc1` [resveratrol, trans-3,4,5-trihydroxystilbene], the Kd was found to be 12.8 µM.

These data come from article doi:10.1101/611376v1 (biorxiv, 2019).
